# In US12691094B2, “Use of Crassifolin A in preparation of drug for promoting mitophagy and treating neurodegenerative diseases” (JINAN UNIVERSITY, priority 2021, dated 2026):
# Assays:
# [1] = tested on: Hela-mt-Keima cells; assay: Flow cytometry of Hela-mt-Keima cells for screening a mitophagy drug; assay type: cell-based; conditions: 10 μM JGX-1+10 μM FCCP (FIG. 1 legend: JGX-1 10 μM)
# Description: (§1) The Keima fluorescent protein derived from anthozoan has a pH value-dependent bimodal excitation spectrum, that is, Keima can be excited to emit green fluorescence at neutral pH and acidic pH and red fluorescence under the excitation of light with a wavelength of 440 nm and 586 nm, respectively. Since mitochondria that undergo autophagy eventually enter acidic lysosomes, Keima with the mitochondrial localization (mitocondrial Keima, mt-Keima) can indicate the mitochondria that enter the lysosomes via the autophagic pathway. The specific procedure of this experiment is as follow:
# Inoculation of Hela-mt-Keima cells into a 24-well plate at a density of 5×10^4, and then adding 1 mL of DMEM medium containing 10% (v/v) fetal bovine serum (FBS) to them to culture for 24 h; after 24 h, respectively adding 0.1% (v/v) DMSO (dimethyl sulfoxide), with DMSO (10 μM) as a solvent control group (DMSO), 10 μM of mitochondrial uncoupling agent (FCCP) (sigma) as a positive drug control group, and 10 μM JGX-1+10 μM FCCP as an experimental group, each group having 3 replicates; collecting cells on the third day by centrifugation at 1000×g for 3 min, resuspending in 0.5 mL of PBS buffer, sieving at 40 μm on the machine, collecting 5×10^4 cells by flow cytometry, recording the collection time, 405 nm/Qdot605-A, 561 nm/PE-Texas Red-A, and calculating MI=561/405+561.
# [2] = tested on: Hela-mt-Keima cells; assay: Detection of mitophagy in Hela-mt-Keima cells by confocal microscopy; assay type: cell-based; conditions: 10 μM JGX-1, 8 h
# Description: as §1, with “is, Keima at neutral pH and acidic pH can be” for “is, Keima can be”, “green fluorescence and red” for “green fluorescence at neutral pH and acidic pH and red”, “mitochondrial localization (mitochondrial Keima, mt-Keima)” for “mitochondrial localization (mitocondrial Keima, mt-Keima)”, “is as follows:” for “is as follow:”
# Inoculation of Hela-mt-Keima cells into 12 laser confocal cell culture dishes at a density of 1×10^4, and then adding 1 mL of DMEM medium containing 10% (v/v) FBS; after 5 h, changing the solution, and dividing into a solvent control group (DMSO), a positive drug control group (10 μM FCCP), an experimental group 1 (10 μM JGX-1+10 μM FCCP) and an experimental group 2 (10 μM JGX-1), with 3 replicates in each group; incubating cells in a 5% (v/v) CO2 cell culture incubator at 37° C.; after 8 h, observing the changes in the excitation fluorescence signals of the 458 nm channel (indicating Keima at neutral pH) and the 561 nm channel (indicating Keima at acidic pH) under a laser confocal microscope, randomly selecting 3 fields of view to take photos, and then statistically plotting.
# [3] = tested on: LC3B; assay: Western blot of LC3B in hSY5Y cells; assay type: cell-based; conditions: JGX-1 10 μmol/L, 24 h
# Description: • a. […]
# [4] = tested on: pTAU (202); assay: Western blot of phosphorylated Tau in hSY5Y cells; assay type: cell-based; conditions: JGX-1 10 μmol/L, 24 h
# Description: • a. […]
# [5] = tested on: Tau model mice; assay: Morris water maze test of learning memory; assay type: in vivo; conditions: 10-month-old Tau model mice, oral 20 mg/kg for 3 consecutive months
structure (smiles),measurement,setting,value
"COC(=O)[C@]1(C)CCCC2=C1CC[C@@H](C)[C@]2(C)CCC1=CC(=O)OC1 [JGX-1, Crassifolin A]","mitophagy (flow cytometry, MI=561/405+561)",[1],enhance mitophagy
same,mitophagy (confocal live cell imaging),[2],enhance mitophagy
same,expression of autophagic LC3B,[3],enhanced
same,expression of phosphorylated Tau,[4],inhibited
same,dementia symptoms in the model mice,[5],alleviated
same,learning memory of AD model mice,[5],improved effect
